Among the data in US12589156B2, “Benzimidazole and benzimidazolone based protac compounds for the targeted degradation of leucine rich repeat kinase 2 (LRRK2)” (Arvinas Operations, Inc., priority 2023, dated 2026) are Dmax and DC50 values, retold here.

Usually Dmax stands for the largest share of the target that was removed. Broadly, the DC50 is the midpoint of the concentration-degradation curve. Higher therefore signals degradation only at high concentration.

The target of this assay is T1, WT LRRK2 (Homo sapiens, UniProt Q5S007).
T1 construct: endogenous in cells; host or cells: HEK293 (endogenous LRRK2 gene knock-in tagged with HiBit; stably expressing CMV-driven firefly luciferase)
T1 sequence (Q5S007 whole entry): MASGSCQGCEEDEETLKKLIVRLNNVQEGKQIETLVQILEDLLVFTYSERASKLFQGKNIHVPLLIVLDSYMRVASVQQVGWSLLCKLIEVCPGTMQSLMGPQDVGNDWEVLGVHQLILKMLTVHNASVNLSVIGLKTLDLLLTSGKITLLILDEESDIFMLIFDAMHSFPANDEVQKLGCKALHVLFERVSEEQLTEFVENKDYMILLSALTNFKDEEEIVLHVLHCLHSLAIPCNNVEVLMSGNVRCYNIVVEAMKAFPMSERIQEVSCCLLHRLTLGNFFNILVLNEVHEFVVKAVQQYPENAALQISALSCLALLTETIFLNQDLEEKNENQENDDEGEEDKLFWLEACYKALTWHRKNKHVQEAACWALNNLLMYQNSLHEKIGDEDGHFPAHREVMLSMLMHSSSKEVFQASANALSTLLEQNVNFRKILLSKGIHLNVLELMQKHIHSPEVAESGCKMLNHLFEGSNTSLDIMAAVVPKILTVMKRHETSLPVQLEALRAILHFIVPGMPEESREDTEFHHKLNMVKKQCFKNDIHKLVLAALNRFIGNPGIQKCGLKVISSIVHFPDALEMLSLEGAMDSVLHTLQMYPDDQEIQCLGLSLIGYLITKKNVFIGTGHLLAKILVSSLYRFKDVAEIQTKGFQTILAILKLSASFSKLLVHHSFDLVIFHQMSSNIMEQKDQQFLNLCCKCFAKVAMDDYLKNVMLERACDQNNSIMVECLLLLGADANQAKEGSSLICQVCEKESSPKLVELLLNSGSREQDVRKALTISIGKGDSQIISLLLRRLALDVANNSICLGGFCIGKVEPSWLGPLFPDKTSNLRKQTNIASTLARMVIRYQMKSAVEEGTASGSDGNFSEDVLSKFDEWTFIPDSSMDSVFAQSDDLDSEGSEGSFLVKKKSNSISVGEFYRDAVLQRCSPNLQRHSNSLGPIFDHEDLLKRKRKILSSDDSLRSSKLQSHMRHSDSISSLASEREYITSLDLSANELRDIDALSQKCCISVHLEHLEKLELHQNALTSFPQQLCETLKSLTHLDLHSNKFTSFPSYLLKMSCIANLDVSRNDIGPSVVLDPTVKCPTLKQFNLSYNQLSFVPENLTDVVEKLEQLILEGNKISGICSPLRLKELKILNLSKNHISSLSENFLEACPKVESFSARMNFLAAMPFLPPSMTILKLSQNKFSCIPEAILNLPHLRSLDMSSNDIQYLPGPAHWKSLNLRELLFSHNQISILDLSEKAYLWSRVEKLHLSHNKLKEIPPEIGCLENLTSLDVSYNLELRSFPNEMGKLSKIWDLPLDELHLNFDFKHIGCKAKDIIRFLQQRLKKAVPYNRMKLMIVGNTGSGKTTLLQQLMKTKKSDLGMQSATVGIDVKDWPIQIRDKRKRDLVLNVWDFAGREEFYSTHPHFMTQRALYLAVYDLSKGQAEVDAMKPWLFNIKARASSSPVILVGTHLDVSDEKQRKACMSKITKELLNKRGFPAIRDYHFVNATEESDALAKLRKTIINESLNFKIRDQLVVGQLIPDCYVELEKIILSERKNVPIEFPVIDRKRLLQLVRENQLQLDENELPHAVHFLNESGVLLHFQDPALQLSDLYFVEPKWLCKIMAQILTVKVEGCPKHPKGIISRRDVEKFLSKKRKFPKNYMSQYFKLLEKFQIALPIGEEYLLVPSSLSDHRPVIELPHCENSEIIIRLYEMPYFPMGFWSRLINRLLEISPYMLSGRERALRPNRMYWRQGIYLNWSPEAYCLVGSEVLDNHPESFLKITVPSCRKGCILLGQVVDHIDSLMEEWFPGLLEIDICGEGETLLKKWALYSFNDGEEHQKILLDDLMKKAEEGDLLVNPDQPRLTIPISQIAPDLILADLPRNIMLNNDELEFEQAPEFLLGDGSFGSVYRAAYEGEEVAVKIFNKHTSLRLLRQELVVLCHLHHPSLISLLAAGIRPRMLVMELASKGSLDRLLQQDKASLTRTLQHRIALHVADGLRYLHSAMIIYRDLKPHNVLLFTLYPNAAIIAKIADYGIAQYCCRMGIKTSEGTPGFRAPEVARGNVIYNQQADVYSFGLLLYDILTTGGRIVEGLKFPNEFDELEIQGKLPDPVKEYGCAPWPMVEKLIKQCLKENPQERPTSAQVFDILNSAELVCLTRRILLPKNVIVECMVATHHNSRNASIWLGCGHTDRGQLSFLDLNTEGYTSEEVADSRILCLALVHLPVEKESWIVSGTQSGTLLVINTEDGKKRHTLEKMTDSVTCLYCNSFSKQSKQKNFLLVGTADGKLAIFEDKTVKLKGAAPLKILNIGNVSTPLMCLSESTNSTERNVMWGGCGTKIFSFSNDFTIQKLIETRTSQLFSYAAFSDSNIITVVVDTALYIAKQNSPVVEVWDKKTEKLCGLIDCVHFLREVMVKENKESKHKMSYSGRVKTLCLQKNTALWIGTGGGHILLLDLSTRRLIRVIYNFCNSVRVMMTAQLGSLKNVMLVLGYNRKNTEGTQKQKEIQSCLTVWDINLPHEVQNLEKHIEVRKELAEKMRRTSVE
Put plainly: LRRK2 HiBit degradation assay (Nano-Glo Dual Luciferase) in HEK293 cells with HiBit-tagged endogenous LRRK2. Format: cell-based. As to conditions: HiBit-tagged LRRK2 in HEK293 cells, 24 hours treatment; for Dmax: HEK293, Table 2, maximal degradation; for DC50: Table 2, starting concentration 1 μM. From the text: Biological Assays Exemplary Assay for Testing LRRK2 Degradation Driven by Exemplary Hetero-Bifunctional Compounds Designed to Target LRRK2
The assay measures the degradation of LRRK2 in cells where the C-terminus (3′) of the endogenous gene has been tagged with a HiBit sequence in HEK293 cells. The cells also express firefly lucisferase, expressed from a Cytomegalovirus promoter and introduced into the HiBit tagged cells and stably expressed. The Nano-Glo® Dual Luciferase Reporter Assay System (Promega™, Madison, WI) was utilized.
Day 1—Preparation of Compound and Assay Plates. Two sets of plates were prepared: a triplicate set for the HiBit assay in white 384-well plates and a triplicate set of plate in black 384-well plates for the Alamar Blue cell viability assay. Briefly, the growth media (DMEM+Glutamax-10% fetal bovine serum-1% Penicillin-Streptomicin) from two T128 flasks was aspirated from the flasks. Cells were washed with Dulbecco's Phosphate Buffered Saline (dPBS) and aspirated. Trypsin (3 mL per flask) was added and the flasks were incubated for 2-3 minutes.
Ten mL of OptiMEM—10% fetal bovine-1% penicillin-streptomycin (hereinafter, “OptiMEM media”) was added to the flask and the cells and transferred to a 50 ml conical tube. A cell count (25 ul of cell into Effendorf vial+25 ul of Trypan Blue Stain) was performed and the cell density adjusted to 15,000 cell/45 μl/well (3.33×10^5/mL) in OptiMEM media.
Forty-five microliters of the cell suspension (15,000 cells) was aliquoted to each well of the white 384-well plate. The plates incubated at room temperature for 10 minutes before being placed in the 37° C.+5% CO2 incubator overnight
Day 2—Compound Treatment. Exemplary compounds were prepared at a 1 mM starting concentration and 1:3 serial dilution for 11 points CRC prepared and stored in the freezer. The Master Compound Plate was thawed overnight at room temperature. DMSO (20 μL) was added into column 24 of the Master Compound Plate for negative control and 20 μL of 300 μM of Compound 4 in column 23 as positive control.
Intermediate Compound Plate with 4% DMSO in OptiMEM Media. DMSO was added to warm OptiMEM media to achieve a 4% DMSO solution (approximately 50 mL/plate). One-hundred microliters of the OptiMEM-4% DMSO was aliquoted to each well of 384-Well Deep Well Microplates.
The Master Compound Plate and the Intermediate Compound Plate were spun down.
One microliter of compound from the Master Compound Plate was transferred into the Intermediate plate (a 1:100 dilution). The diluted mixture was mixed and 5 μL transferred into the assay plate (a 1:10 dilution) for the final starting concentration of 1 μM. The Treated Assay plates were incubated for 24 hours at 37° C.+5% CO2. The Master Compound Plate was sealed and store at room temperature for a second run that was performed within a week.
One set of white assay plates was warmed to room temperature (45 minute).
The One Glo luciferase mixture was prepared. The media from white 384-well assay plates was aspirated. Twenty-five μL of the One Glo luciferase mixture was added to each well of the assay plates. The plates were incubated on the bench (room temperature) for 45 minutes, including 10 minutes of shaking at 700 rpm. The luminescence of each plate was read on a plate reader.
1:100 DLR substrate and 1:100 LgBiT Protein dilution were added to the Promega Stop and Glo buffer and mixed just before addition to assay plates. Twenty-five microliters of Stop and Glo mixture was added to each well. Assay plates incubated for at least 45 minutes, including 10 minutes of shaking at 700 rpm. The luminescence of each plate was read on a plate reader.
Analysis of LRRK2 HiBit Screening assays. As mentioned above, plates were run in triplicate and the assay repeated twice (total of 6 replicate for exemplary compounds). For each treatment, measurements were taken for firefly luciferase for cell number, cell viability (Alamar Blue), and Nanoluc for the LRRK2-HiBit quantification. […]
(HiBiT is a short tag that completes a luciferase, so light tracks the accessible tagged protein.)

The compound `Cn1c(=O)n(C2CCC(=O)NC2=O)c2ccc(N3CCC(O[C@H]4CC[C@H](CN5CCN(c6cc(-c7n[nH]c8cnc(OC(C)(C)C)cc78)ncn6)CC5)CC4)CC3)cc21` (single isomer, unassigned) [Compound 19, rel-3-[3-methyl-2-oxo-5-(4-{[(1r,4r)-4-[(4-{6-[5-(tert-butoxy)-1H-pyrazolo[3,4-c]pyridin-3-yl]pyrimidin-4-yl}piperazin-1-yl)methyl]cyclohexyl]oxy}piperidin-1-yl)-2,3-dihydro-1H-1,3-benzodiazol-1-yl]piperidine-2,6-dione] had a Dmax of 76% and a DC50 of 28 nM.

As to `CC(C)Oc1cc2c(-c3cc(N4CCN(C[C@H]5CC[C@H](OC6CCN(c7ccc8c(c7)n(C)c(=O)n8C7CCC(=O)NC7=O)CC6)CC5)CC4)ncn3)n[nH]c2cn1` (single isomer, unassigned) [Compound 20, rel-3-[3-methyl-2-oxo-5-(4-{[(1r,4r)-4-[(4-{6-[5-(propan-2-yloxy)-1H-pyrazolo[3,4-c]pyridin-3-yl]pyrimidin-4-yl}piperazin-1-yl)methyl]cyclohexyl]oxy}piperidin-1-yl)-2,3-dihydro-1H-1,3-benzodiazol-1-yl]piperidine-2,6-dione], the Dmax amounted to 40% and the DC50 stood at 0.56 nM.

In the case of `COc1cc2c(-c3cc(N4CCN(C[C@H]5CC[C@H](OC6CCN(c7ccc8c(c7)n(C)c(=O)n8C7CCC(=O)NC7=O)CC6)CC5)CC4)ncn3)n[nH]c2cn1` (single isomer, unassigned) [Compound 21, rel-3-[3-methyl-2-oxo-5-(4-{[(1r,4r)-4-{[4-(6-{5-methoxy-1H-pyrazolo[3,4-c]pyridin-3-yl}pyrimidin-4-yl)piperazin-1-yl]methyl}cyclohexyl]oxy}piperidin-1-yl)-2,3-dihydro-1H-1,3-benzodiazol-1-yl]piperidine-2,6-dione], the DC50 was at least 1000 nM.

Regarding `Cn1c(=O)n(C2CCC(=O)NC2=O)c2ccc(N3CCC(O[C@H]4CC[C@H](CN5CCN(c6cc(-c7n[nH]c8cnc(C9(C#N)CCC9)cc78)ncn6)CC5)CC4)CC3)cc21` (single isomer, unassigned) [Compound 22, rel-1-{3-[6-(4-{[(1r,4r)-4-({1-[1-(2,6-dioxopiperidin-3-yl)-3-methyl-2-oxo-2,3-dihydro-1H-1,3-benzodiazol-5-yl]piperidin-4-yl}oxy)cyclohexyl]methyl}piperazin-1-yl)pyrimidin-4-yl]-1H-pyrazolo[3,4-c]pyridin-5-yl}cyclobutane-1-carbonitrile], the Dmax came out at 46% and the DC50 stood at 0.14 nM.

Compound `Cn1c(=O)n(C2CCC(=O)NC2=O)c2ccc(N3CCC(O[C@H]4CC[C@H](CN5CCN(c6cc(-c7n[nH]c8cnc(C9(C#N)CC9)cc78)ncn6)CC5)CC4)CC3)cc21` (single isomer, unassigned) [Compound 23, rel-1-{3-[6-(4-{[(1r,4r)-4-({1-[1-(2,6-dioxopiperidin-3-yl)-3-methyl-2-oxo-2,3-dihydro-1H-1,3-benzodiazol-5-yl]piperidin-4-yl}oxy)cyclohexyl]methyl}piperazin-1-yl)pyrimidin-4-yl]-1H-pyrazolo[3,4-c]pyridin-5-yl}cyclopropane-1-carbonitrile] gave a Dmax of 45% and a DC50 of 0.56 nM.

In the case of `Cn1c(=O)n(C2CCC(=O)NC2=O)c2ccc(N3CCC(O[C@H]4CC[C@H](CN5CCN(c6cc(-c7n[nH]c8cnc(C9(C#N)CC%10(CC%10)C9)cc78)ncn6)CC5)CC4)CC3)cc21` (single isomer, unassigned) [Compound 24, rel-5-{3-[6-(4-{[(1r,4r)-4-({1-[1-(2,6-dioxopiperidin-3-yl)-3-methyl-2-oxo-2,3-dihydro-1H-1,3-benzodiazol-5-yl]piperidin-4-yl}oxy)cyclohexyl]methyl}piperazin-1-yl)pyrimidin-4-yl]-1H-pyrazolo[3,4-c]pyridin-5-yl}spiro[2.3]hexane-5-carbonitrile], the Dmax turned out to be 49% and the DC50 amounted to 0.46 nM.
